Reference: the NIST ThermoML archive (doi:10.1021/je0501639)

Tests used:
[1] = xn = mol fraction of the nth substance listed; conditions: 318.15 K, 100.8 kPa, Liquid
[2] = refractive index (Na D-line) (dimensionless); xn = mol fraction of the nth substance listed; conditions: 100.8 kPa, Liquid, Standard Abbe refractometry

CC(C)(C)O [2-methylpropan-2-ol] + CC(C)CC(C)(C)C
[1]
Conditions	mass density [kg/m3]	viscosity [mPa·s]
x1 = 0.3	684.92	0.449
x1 = 0.35	688.11	0.45
x1 = 0.4	691.43	0.48
x1 = 0.45	694.99	0.504
x1 = 0.5	698.77	0.542
x1 = 0.55	702.81	0.564
x1 = 0.6	707.21	0.614
x1 = 0.65	711.98	0.649
x1 = 0.7	717.21	0.706
x1 = 0.75	722.88	0.798
x1 = 0.8	729.03	0.889
x1 = 0.85	735.65	1.028
x1 = 0.9	743.04	1.164
x1 = 0.95	751.07	1.398
x1 = 1	760.05	1.708

refractive index, [2]
Conditions	298.15 K	308.15 K	318.15 K
x1 = 0.05	1.38834	1.38325	1.37818
x1 = 0.1	1.38784	1.38271	1.37755
x1 = 0.15	1.38735	1.38219	1.37703
x1 = 0.2	1.38693	1.38177	1.37655
x1 = 0.25	1.3865	1.38135	1.37611
x1 = 0.3	1.38612	1.38095	1.3757
x1 = 0.35	1.38573	1.38055	1.37528
x1 = 0.4	1.38537	1.38021	1.37491
x1 = 0.45	1.38505	1.37986	1.37458
x1 = 0.5	1.38473	1.37955	1.37427
x1 = 0.55	1.38445	1.37926	1.37397
x1 = 0.6	1.3842	1.37903	1.37371
x1 = 0.65	1.38398	1.37881	1.37348
x1 = 0.7	1.38381	1.37862	1.37331
x1 = 0.75	1.38371	1.3785	1.37317
x1 = 0.8	1.38368	1.37847	1.37313
x1 = 0.85	1.38381	1.37858	1.37323
x1 = 0.9	1.38405	1.37879	1.37339
x1 = 0.95	1.38436	1.37914	1.37372
x1 = 1	1.38481	1.3796	1.37416
